Laboratory results published in patent publication US20230028658A1, “EXPANDED DOSAGE REGIMENS FOR INTEGRIN INHIBITORS” (Pliant Therapeutics, Inc., priority 2021, published 2023).

Legend:
[1] = test system: Type I Collagen gene Col1a1 expression; assay: Precision cut lung slices of mice under acute bleomycin exposure, Col1a1 expression; format: cell-based, Mice (C57BL/6); conditions: acute bleomycin PCLS, 3 days culture, normalized to DMSO; FIG. 5A
Description: Mice (C57BL/6) were administered 3 U/kg of bleomycin (Teva Pharmaceuticals; North Wales, Pa.) on day 0 via oropharyngeal aspiration while under anesthesia. On day 14, precision cut lung slices were obtained. Following euthanization, 2% low gelling temp agarose was injected into the mouse lungs via the trachea. […] The lobes were then subjected to precision slicing to obtain samples for culture using a microtome (Compresstome VF-300-0Z, Precisionary; Greenville, N.C.). Individual slices were distributed in a multiwell culture plate and cultured for 3 days under control (DMSO) and test compound conditions.

[2] = test system: IPF-derived human lung fibroblasts; assay: LAP adhesion binding assay, IPF-derived human lung fibroblasts (xCELLigence cell index); format: cell-based; conditions: FIG. 3B, adhesion to LAP
Description: Two latency associated peptide (LAP) adhesion binding assays were devised using primary human lung cells, including normal (healthy) human bronchial epithelial cells and human lung fibroblasts (healthy and IPF).
Human lung fibroblasts derived from normal and IPF lung tissue are known to express αvβ1 integrin. The IPF-derived human lung fibroblasts were prepared for the assay by dissociation with trypsin/EDTA, and were seeded at 20,000 cells per well on 96 well plates (ACEA Bioscience E-plate View, Acea Biosciences; San Diego, Calif.) previously coated with 5 μg/ml of recombinant human LAP (R&D Systems; Minneapolis, Minn.) and blocked with 4% bovine serum albumin. Cell index (electrical impedance) was measured to assess cell attachment/spreading every 3 minutes for 24 hours at 37° C./5% CO2 using the xCELLigence RTCA MP Instrument (Acea Biosciences; San Diego, Calif.). […] In the assay, the IPF-derived human lung fibroblasts were separately incubated with: the αvβ1-selective small molecule inhibitor; the selective antibody αvβ6 inhibitor, 3G9; and compound 5.

COL1A1 expression = assay: PCLS from IPF lung tissue, seven days, COL1A1 expression; format: cell-based, human; conditions: PCLS from a single IPF lung tissue sample, Compound 5 200 pM to 1 μM, significant reduction observed ≥2 nM, FIG. 6E
Description: PCLS from 5-7 idopathic pulmonary fibrosis (IPF) lung tissue samples were cultured for seven days with one of: DMSO; Compound 5 at 200 nM; nintedanib at 75 nM; pirfenidone at 50 μm; a combination of Compound 5 at 200 nM and nintedanib at 75 nM; a combination of Compound 5 at 200 nM and pirfenidone at 50 μm; or an Alk5 inhibitor at 1 μm. […] FIG. 6D is a bar graph showing relative expression of COL1A1 in precision cut lung slices (PCLS) from idopathic pulmonary fibrosis (IPF) lung tissue upon exposure to Compound 5, clinical standard of care compounds nintedanib (Nin) and pirfenidone (Pirf), and an ALK5 inhibitor, all versus DMSO control.
PCLS from a single IPF lung tissue sample were cultured for seven days with Compound 5 at concentrations of 200 pM, 2 nM, 60 nM, 200 nM, and 1 μM, along with 0.1% DMSO control and an Alk5 inhibitor at 1 μM. […] COL1A1 expression is also graphed for the PCLS in the presence of 0.1% DMSO control, and an Alk5 inhibitor at 1 μM.

bleomycin-treated mice = assay: Murine bleomycin model; format: in vivo, Mice (C57BL/6)
Text: It has been previously shown that inhibition of αvβ6 in the lung can be detected though measurement of phospho-SMAD (pSMAD) in alveolar macrophages. Alveolar macrophages are known to operate in a unique niche in the lung, distinct from interstitial macrophages. SMAD3 is a downstream target of the active TGF-β cytokine binding its receptor and in alveolar macrophages it is phosphorylated by homoeostatic levels of TGF-β. Accordingly, it was desirable to know whether inhibition of TGF-β activation using the disclosed compounds would result in reduced SMAD2 and SMAD3 phosphorylation.
Mice (C57BL/6) were divided into healthy (n=15), vehicle-treated (n=15), and test article-treated (n=15 per dose) groups. Mice in the vehicle and test article-treated groups were administered 3 U/kg of bleomycin (Teva Pharmaceuticals; North Wales, Pa.) via oropharyngeal aspiration while under anesthesia on day 0. Healthy animals were administered water in a similar fashion. Starting on day 7, mice in the control group were administered PBS vehicle, 130 μL, by oral gavage, BID for 14 days. Also starting on day 7, mice in the test group were administered compound 5 in PBS by oral gavage, BID for 14 days, at relative dosages of 1×, 2.5× and 5×. […] From day 14 through day 21, 9 of the 15 mice were administered ^2H2O for labeling. All mice were sacrificed on day 21 and tissues were collected. Samples were prepared for analysis either directly from lung tissue, or by bronchoalveolar lavage, which washes out the bronchiolar and alveolar space with saline to produce a bronchoalveolar lavage fluid (BALF) in which 80-90% of cells are alveolar macrophages.

COL1A1 = COL1A1 expression in precision cut lung slices (PCLS) from human IPF lung tissue (FIG. 6E); format: cell-based; conditions: concentrations ranging from 200 pM to 1 μM, versus 0.1% DMSO control
Description: FIG. 6D is a bar graph showing relative expression of COL1A1 in precision cut lung slices (PCLS) from idiopathic pulmonary fibrosis (IPF) lung tissue upon exposure to Compound 5, clinical standard of care compounds nintedanib (Nin) and pirfenidone (Pirf), and an ALK5 inhibitor, all versus DMSO control.
COL1A1 expression is also graphed for the PCLS in the presence of 0.1% DMSO control, and an Alk5 inhibitor at 1 μM.

SMILES: COCCN(CCCCc1ccc2c(n1)NCCC2)CC[C@H](Nc1ncnc2ccccc12)C(=O)O [Compound 5, (S)-4-((2-methoxyethyl) (4-(5,6,7,8-tetrahydro-1,8-naphthyridin-2-yl)butyl)amino)-2-(quinazolin-4-ylamino) butanoic acid]
- Type I Collagen gene Col1a1 expression [1]: decreased Type I Collagen gene Col1a1 expression substantially
- inhibition of cell adhesion in the IPF-derived lung fibroblasts [2]: substantially inhibited
- reduction in COL1A1 expression at ≥2 nM (COL1A1 expression): ≥ 47%
- pSMAD3 levels in lung and BALF cells vs. plasma drug exposure (bleomycin-treated mice; 14 days after bleomycin, […] dose PO BID 1.5 days, FIGS. 4J, 4K): close inverse relationship
- accumulated new collagen (percentage of lung collagen containing 2H-labeled hydroxyproline) (bleomycin-treated mice; bleomycin mice, 1× and 5× (p<0.01 vs vehicle), FIG. 4D): dose-dependent reduction
- total pulmonary collagen, as measured by μg of hydroxyproline (bleomycin-treated mice; bleomycin mice, 1×, […], 5× (p<0.05 vs vehicle), FIG. 4E): reduction in total pulmonary collagen
- percent total collagen area in second harmonic generation lung images (bleomycin-treated mice; bleomycin mice, 1×, […], 5×, FIG. 4I): substantial, statistically significant dose-dependent reduction
- pSMAD3 levels in the lung (SMAD3 phosphorylation) (bleomycin-treated mice; bleomycin mice, oral gavage BID 14 days, 1×, […], 5×, FIG. 4C): approximately 50 % of the untreated levels
- COL1A1 expression in PCLS from human IPF lung tissue (COL1A1): dose dependent reduction
